Data on 4 molecules can be found in patent publication US4220644A, “7-Acylamino-3-(substituted tetrazolyl thiomethyl) cephalosporins” (SmithKline Corporation, priority 1976, dated 1980).

The test system of assay [1] is Salmonella ATCC 12176. The assay is described as follows: MIC in vitro (Table 1), Salmonella ATCC 12176. In kind it is cell-based. An excerpt: (§1) The compounds of Formula I have antibacterial activity against both Gram-positive and Gram-negative organisms. […] Compound names corresponding to numbers are given in the experimental section. For comparative purposes, data for cephamandole, which is 7-mandelamido-3-(1-methyltetrazol-5-ylthiomethyl)-3-cephem-4-carboxylic acid, is also given in Tables 1 and 2.

Assay [2] relates to S. villaluz. Kind of assay: MIC in vitro (Table 1), S. villaluz. In kind it is cell-based.
Source text: as §1

For assay [3], the system named is S. aureus SK 23390. Kind of assay: MIC in vitro (Table 1), S. aureus SK 23390. In kind it is cell-based. An excerpt: (§2) Compound names corresponding to numbers are given in the experimental section. For comparative purposes, data for cephamandole, which is 7-mandelamido-3-(1-methyltetrazol-5-ylthiomethyl)-3-cephem-4-carboxylic acid, is also given in Tables 1 and 2.

The subject of assay [4] is Entero. cloacae HH 31254. The assay is described as follows: MIC in vitro (Table 1), Entero. cloacae HH 31254. In kind it is cell-based.
Source text: as §2

In assay [5] the test system is Serra. Marc. ATCC 13880. The assay is described as follows: MIC in vitro (Table 1), Serra. Marc. ATCC 13880. In kind it is cell-based. The conditions noted are these: in vitro, Serra. Marc. ATCC 13880.
Source text: as §2

Assay [6] concerns E. coli SK 12140. The assay is described as follows: MIC in vitro (Table 1), E. coli SK 12140. In kind it is cell-based.
Source text: as §2

In assay [7] the test system is S. aureus HH 127. Kind of assay: MIC in vitro (Table 1), S. aureus HH 127. In kind it is cell-based. The conditions noted are these: S. aureus HH 127.
Source text: as §2

The test system of assay [8] is Shigella HH 117. Kind of assay: MIC in vitro (Table 1), Shigella HH 117. In kind it is cell-based.
Source text: as §1

For assay [9], the system named is Proteus morgani 179. Kind of assay: MIC in vitro (Table 1), Proteus morgani 179. In kind it is cell-based.
Source text: as §2

Assay [10] concerns E. coli HH 33779. The assay is described as follows: MIC in vitro (Table 1), E. coli HH 33779. In kind it is cell-based. The conditions noted are these: E. coli HH 33779.
Source text: as §2

For assay [11], the system named is Strep. Faecalis HH 34358. Kind of assay: MIC in vitro (Table 1), Strep. Faecalis HH 34358. In kind it is cell-based.
Source text: as §2

Assay [12] has as its system Entero. aerog. ATCC 13048. The assay is described as follows: MIC in vitro (Table 1), Entero. aerog. ATCC 13048. In kind it is cell-based. The settings on record: in vitro, Entero. aerog. ATCC 13048.
Source text: as §2

The subject of assay [13] is Kleb. pneumo. SK 4200. The assay is described as follows: MIC in vitro (Table 1), Kleb. pneumo. SK 4200. The settings on record: in vitro, Kleb. pneumo. SK 4200. In kind it is cell-based.
Source text: as §2

For assay [14], the system named is Kleb. pneumo. SK 1200. Kind of assay: MIC in vitro (Table 1), Kleb. pneumo. SK 1200. In kind it is cell-based.
Source text: as §2

Assay [15] has as its system Kleb. pneumo. 4200. Kind of assay: In vivo mouse protection (Table 2), Kleb. pneumo. 4200.
Source text: as §2

The subject of assay [16] is Pseudo. sp. HH 63. Kind of assay: MIC in vitro (Table 1), Pseudo. sp. HH 63. The settings on record: in vitro, Pseudo. sp. HH 63; read-out: MIC. In kind it is cell-based.
Source text: as §1

Assay [17] relates to E. coli 12140. Kind of assay: In vivo mouse protection (Table 2), E. coli 12140.
Source text: as §2

Where [18] appears, read: Salmonella, ATCC12176, in vitro, read-out: MIC.
The mark [19] stands for this setting: Enterobacter cloacae, HH31254, in vitro, Entero. cloacae HH 31254, read-out: MIC.
[20] abbreviates: Escherichia coli, SK12140, in vitro, read-out: MIC.
Where [21] appears, read: Staphylococcus aureus, HH127, in vitro, read-out: MIC.
[22] abbreviates: Shigella, HH117, in vitro, read-out: MIC.
The mark [23] stands for this setting: Escherichia coli, HH33779, in vitro, read-out: MIC.
[24] abbreviates: Enterococcus faecalis, in vitro, Strep. Faecalis HH 34358, read-out: MIC.
Where [25] appears, read: Escherichia coli, 12140, po, E. coli 12140, p.o.
Setting [26] is: Escherichia coli, 12140, sc, E. coli 12140, s.c.

Values after ≈ are worked out from the molar mass of the structure shown. Where two headings read alike, the source gives them in different places. A value given as a limit tells only on which side of the number the result lay.

On to “7-(α-Carboxythienylacetamido)-3-(1-carboxymethyltetrazol-5-ylthiomethyl)-3-cephem-4-carboxylic acid [XIX]”, for which the minimal inhibitory concentration (MIC) was determined as 25 µg/mL in assay [1] (in vitro); 100 µg/mL in assay [2]; 50 µg/mL in assay [3] (in vitro, S. aureus SK 23390); 50 µg/mL in assay [4] (in vitro, Entero. cloacae HH 31254); 50 µg/mL in assay [5]; 25 µg/mL in [6] (in vitro). The MIC in assay [7] (in vitro) was 50 µg/mL; in assay [8] (in vitro) it was 6 µg/mL; in [9], 6 µg/mL; in assay [10] (in vitro), 50 µg/mL; in assay [11] (in vitro, Strep. Faecalis HH 34358), 200 µg/mL; in assay [12], 50 µg/mL. Besides, the minimal inhibitory concentration (MIC) came to 50 µg/mL in [13] and 6 µg/mL in [14].

Take `NC(=O)Cn1nnnc1SCC1=C(C(=O)O)N2C(=O)C(NC(=O)[C@H](O)c3ccccc3)[C@H]2SC1` (stereo partly drawn) [V, 7-D-Mandelamido-3-(1-carbamoylmethyltetrazol-5-ylthiomethyl)-3-cephem-4-carboxylic acid]: the MIC in [1] (setting [18]) came to 0.8 µg/mL (≈ 1.58 µM); in assay [1] (in vitro) it was 0.4 µg/mL (≈ 0.791 µM); in assay [2] (read-out: MIC) it was 25 µg/mL (≈ 49.5 µM); in assay [3] (Staphylococcus aureus, SK23390, in vitro, S. aureus SK 23390, read-out: MIC), 3.1 µg/mL (≈ 6.13 µM); in assay [3] (in vitro, S. aureus SK 23390) it was 1.6 µg/mL (≈ 3.16 µM); in assay [4] (Enterobacter cloacae, HH31254) it was 0.4 µg/mL (≈ 0.791 µM). Also, the MIC in assay [4] (setting [19]) was 0.8 µg/mL (≈ 1.58 µM); in [5] (read-out: MIC) it was 12.5 µg/mL (≈ 24.7 µM); in assay [6] (setting [20]) it was 0.8 µg/mL (≈ 1.58 µM); in assay [7] (setting [21]), 1.6 µg/mL (≈ 3.16 µM); in assay [8] (setting [22]), 0.2 µg/mL (≈ 0.396 µM); in assay [8] (in vitro), 0.4 µg/mL (≈ 0.791 µM). In addition, the MIC in [9] is 1.6 µg/mL (≈ 3.16 µM); in [9] (read-out: MIC) it was 3.1 µg/mL (≈ 6.13 µM); in assay [10] (setting [23]) it was 1.6 µg/mL (≈ 3.16 µM); in assay [11] (setting [24]), 25 µg/mL (≈ 49.5 µM); in [12] (read-out: MIC) it was 1.6 µg/mL (≈ 3.16 µM); in assay [16], more than 200 µg/mL. In addition, the minimal inhibitory concentration (MIC) in assay [13] (read-out: MIC) was determined as 1.6 µg/mL (≈ 3.16 µM); in [14] it was 0.4 µg/mL (≈ 0.791 µM); in assay [14] (read-out: MIC) it was 0.8 µg/mL (≈ 1.58 µM). The ED50 in assay [15] (po, Kleb. pneumo. 4200, p.o.) was 21.2 mg/kg; in assay [15] (sc, Kleb. pneumo. 4200, s.c.) it was 1.3 mg/kg; in [17] (setting [25]) it was 50 mg/kg; in assay [17] (setting [26]), 1.56 mg/kg.

Regarding `NC(=O)CCn1nnnc1SCC1=C(C(=O)O)N2C(=O)C(NC(=O)CSC(F)(F)F)[C@H]2SC1` (some centres unmarked) [XVI, 7-Trifluoromethylmercaptoacetamido-3-[1-(2-carbamoylethyl)tetrazol-5-ylthiomethyl]-3-cephem-4-carboxylic acid], the minimum inhibitory concentration (MIC) in assay [1] (setting [18]) worked out at 0.4 µg/mL (≈ 0.758 µM); in [2] (read-out: MIC), 6.3 µg/mL (≈ 11.9 µM); in [3] (Staphylococcus aureus, SK23390) it was 0.8 µg/mL (≈ 1.52 µM); in [4] (setting [19]), 0.4 µg/mL (≈ 0.758 µM); in assay [6] (Escherichia coli, SK12140, in vitro), 0.4 µg/mL (≈ 0.758 µM); in assay [7] (setting [21]), 0.4 µg/mL (≈ 0.758 µM). Also, the minimum inhibitory concentration (MIC) was 0.2 µg/mL (≈ 0.379 µM) in assay [8] (setting [22]); 12.5 µg/mL (≈ 23.7 µM) in [9] (read-out: MIC); 1.6 µg/mL (≈ 3.03 µM) in assay [10] (setting [23]); 12.5 µg/mL (≈ 23.7 µM) in assay [11] (Enterococcus faecalis); 1.6 µg/mL (≈ 3.03 µM) in assay [12] (read-out: MIC); more than 200 µg/mL in assay [16]. Further, the figures for the MIC in [13] (read-out: MIC) and in assay [14] were 0.8 µg/mL (≈ 1.52 µM) and 0.4 µg/mL (≈ 0.758 µM), respectively. In addition, the ED50 in assay [15] (sc, Kleb. pneumo. 4200, s.c.) is 0.54 mg/kg; in [17] (setting [25]), 25 mg/kg; in assay [17] (setting [26]), 0.78 mg/kg.

For the molecule `CN(C)C(=O)Cn1nnnc1SCC1=C(C(=O)O)N2C(=O)C(NC(=O)[C@H](O)c3ccccc3)C2SC1` (stereo partly drawn) [IV, 7-D-Mandelamido-3-(1-N,N-dimethylcarbamoylmethyltetrazol-5-ylthiomethyl)-3-cephem-4-carboxylic acid], the MIC in assay [1] (setting [18]) was 3.1 µg/mL (≈ 5.81 µM); in assay [2] (read-out: MIC), 50 µg/mL (≈ 93.7 µM); in assay [3] (Staphylococcus aureus, SK23390) it was 0.8 µg/mL (≈ 1.5 µM); in assay [4] (setting [19]), 1.6 µg/mL (≈ 3 µM); in [5] (read-out: MIC), 100 µg/mL (≈ 187 µM); in assay [6] (setting [20]) it was 3.1 µg/mL (≈ 5.81 µM). Further, the minimal inhibitory concentration (MIC) in [7] (setting [21]) is 1.6 µg/mL (≈ 3 µM); in assay [8] (setting [22]), 0.8 µg/mL (≈ 1.5 µM); in assay [10] (setting [23]) it was 6.3 µg/mL (≈ 11.8 µM); in assay [11] (setting [24]), 25 µg/mL (≈ 46.9 µM); in [12] (read-out: MIC) it was 6.3 µg/mL (≈ 11.8 µM); in assay [16] it was more than 200 µg/mL. Moreover, the MIC in assay [13] (read-out: MIC) was 3.1 µg/mL (≈ 5.81 µM); in assay [14] (read-out: MIC), 1.6 µg/mL (≈ 3 µM). Besides, the ED50 in assay [15] (po, Kleb. pneumo. 4200, p.o.) was 168 mg/kg; in [15] (sc, Kleb. pneumo. 4200, s.c.), 7.5 mg/kg; in assay [17] (setting [25]), 168 mg/kg; in assay [17] (setting [26]), 2.5 mg/kg.

For orientation: MIC means the smallest concentration in the dilution series that meets the test's criterion for growth inhibition. By ED50 is commonly meant the dose that gives a 50% effect, or the effect in half of the subjects. Lower therefore signals greater potency.
